Experimental data: the supplement of paper PMC10307832

How the values were obtained:
Test in all cases: relative viability (nuclei count vs DMSO), 5 days (fraction); higher = more cells survive
[1] = compound: CS(=O)(=O)c1ccc(-c2cnc(N)c(C(=O)Nc3ccccc3)n2)cc1 [VE-821] + CS(=O)(=O)CCNCc1ccc(-c2ccc3ncnc(Nc4ccc(OCc5cccc(F)c5)c(Cl)c4)c3c2)o1 [Lapatinib] (partner 2 µM)
Summary of the method: (§1)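 Five library-drug doses in √10 steps were combined with a fixed anchor-drug dose, or a single drug was given alone, by pin tool to lung cancer cell lines in 1536-well plates the day after seeding. Nuclei were stained and counted after 5 days. Relative viability is the nuclei count in treated wells over that in vehicle wells, taken as the median of duplicate plates.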

[2] = compound: CS(=O)(=O)c1ccc(-c2cnc(N)c(C(=O)Nc3ccccc3)n2)cc1 [VE-821] + CCNC(=O)c1noc(-c2cc(C(C)C)c(O)cc2O)c1-c1ccc(CN2CCOCC2)cc1 [Luminespib] (partner 0.01 µM)
Summary of the method: as §1

[3] = compound: CS(=O)(=O)c1ccc(C(=O)Nc2ccc(Cl)c(-c3ccccn3)c2)c(Cl)c1 [Vismodegib] + CC1(C)CCC(c2ccc(Cl)cc2)=C(CN2CCN(c3ccc(C(=O)NS(=O)(=O)c4ccc(N[C@H](CCN5CCOCC5)CSc5ccccc5)c(S(=O)(=O)C(F)(F)F)c4)cc3)CC2)C1 [Navitoclax] (partner 0.5 µM)
Summary of the method: as §1

[4] = compound: N#CC[C@H](C1CCCC1)n1cc(-c2ncnc3[nH]ccc23)cn1 [Ruxolitinib] + COc1cccc2cc(-c3nc([C@H]4CC[C@H](C(=O)O)CC4)n4ncnc(N)c34)[nH]c12 [OSI-027] (partner 0.5 µM)
Summary of the method: as §1

Cell Line	relative viability ([1]; first compound 0.08 µM)	relative viability ([1]; first compound 0.253 µM)	relative viability ([1]; first compound 0.8 µM)	relative viability ([1]; first compound 2.53 µM)	relative viability ([1]; first compound 8 µM)	relative viability ([2]; first compound 0.08 µM)	relative viability ([2]; first compound 0.253 µM)	relative viability ([2]; first compound 0.8 µM)	relative viability ([2]; first compound 2.53 µM)	relative viability ([2]; first compound 8 µM)	relative viability ([3]; first compound 0.08 µM)	relative viability ([3]; first compound 0.253 µM)	relative viability ([3]; first compound 0.8 µM)	relative viability ([3]; first compound 2.53 µM)	relative viability ([3]; first compound 8 µM)	relative viability ([4]; first compound 0.253 µM)	relative viability ([4]; first compound 0.8 µM)	relative viability ([4]; first compound 2.53 µM)	relative viability ([4]; first compound 8 µM)	relative viability ([4]; first compound 0.08 µM)
NCI-H1650	0.845	0.749	0.705	0.757	0.45	0.204	0.19	0.25	0.211	0.172	1.14	1.27	1.2	1.17	1.14	0.651	0.98	0.769	0.641	
NCI-H2023	0.918	0.878	0.713	0.477	0.202	0.734	0.624	0.458	0.212	0.125	0.937	1.09	1.08	0.995	0.96	0.298	0.556	0.343	0.411	0.455
SK-LU-1	0.907	0.668	0.625	0.582	0.525	0.177	0.203	0.193	0.203	0.164	0.831	0.695	0.834	0.736	0.936	0.36	0.393	0.295	0.291	0.413
NCI-H2347	1.02	1.05	0.664	1.03	1.14	0.399	0.418	0.238	0.505	0.582	0.735	0.821	0.766	0.763	0.792	0.377	0.451	0.397	0.486	0.438
NCI-H727	1.02	0.755	0.804	0.714	0.436	0.317	0.342	0.368	0.346	0.353	0.496	0.428	0.453	0.36	0.386	0.482	0.817	0.472	0.524	0.557
COR-L23	1.09	0.827	1.01	1.12	0.94	0.835	0.651	0.633	0.342	0.446	1.02	1.03	0.959	0.951	1.14	0.743	0.868	0.729	0.645	0.806
NCI-H2126	0.741	0.713	0.747	0.677	0.6	0.908	0.826	0.807	0.782	0.469	0.838	0.846	0.864	0.802	0.766	0.664	0.74	0.794	0.689	0.758
NCI-H1703	1.21	1	1.06	0.547	0.328						1.02	1.05	0.986	1.23	1.47					
NCI-H358	0.445	0.376	0.486	0.553	0.489	0.62	0.307	0.334	0.537	1.49						0.654	0.754	0.406	0.565	0.417
ABC-1	1.3	1.32	0.811	0.953	0.994	0.614	0.401	0.469	0.49	0.328						0.379	0.83	0.455	0.539	
NCI-H661	0.592	0.427	0.396	0.486	0.381	0.88	0.944	0.958	0.914	0.803						0.664	0.834	0.664	0.666	0.752
NCI-H1648																0.269	0.257	0.308	0.279	
A549	1.14	0.849	0.929	0.829	0.475						1.02	1.13	1.28	1.18	1.23					
NCI-H1563	0.92	0.981	0.812	0.912	0.792	0.56	0.499	0.491	0.509	0.338						0.721	0.714	0.658	0.675	0.803
NCI-H1623						0.588	0.473	0.605	0.509	0.505						0.461	0.469	0.439	0.576	0.48
HCC-366	1.1	1.03	0.883	0.406	0.064						0.991	0.98	0.974	1.1	1.09	0.771	1.01	0.819	0.828	0.984
HCC-78	1.06	0.795	0.371	1.03	0.255						0.703	0.759	0.638	0.707	0.78	0.337	0.33	0.383	0.365	0.36
IA-LM	1.03	0.744	0.821	0.83	0.501						0.912	0.725	0.908	0.82	0.868					
NCI-H522						1.11	1.21	0.958	0.997	0.897						0.667	0.78	0.628	0.605	0.811
EBC-1	0.241	0.195	0.209	0.216	0.265						0.412	0.39	0.436	0.397	0.643					
Calu-6	1.21	1.05	1.1	0.89	0.551						0.712	0.781	0.817	0.877	0.845					
NCI-H650	0.887	0.929	0.903	0.957	0.982	0.986	0.94	0.662	0.883	0.798						0.497	0.618	0.502	0.341	
